Data set [1] relates to NCI-H1975 cell line. Briefly: proliferation assay in EGFR inhibitor resistant NCI-H1975 cell line. The data set is classed as cell-based. Particulars: Homo sapiens; NCI-H1975 cell line (HER1 T790M).
Data set [2] deals with panel of breast tumor cell lines. Briefly: antiproliferative activity in a panel of breast cancer cell lines (Methylene blue viable cell detection assay). The data set is classed as cell-based, human. The procedure:
The indicated cell lines are incubated with increasing amount of Compound A, and effect on the proliferation assessed with a Methylene blue viable cell detection assay. The cell lines indicated with a red asterisk are the ones in which cell death is observed (i.e. for which the absorbance observed for treated cells was lower than the original inoculum).
(§1) ErB-B2 (HER2) is often overexpressed in breast and ovarian cell lines.

Data set [3] deals with NCI-H358 cell line. Kind of data set: proliferation assay (methylene blue assay) with NCI-H358 tumor cells. The data set is classed as cell-based. Particulars: Homo sapiens, read-out: Growth Inhibitory 50 (GI50).
Data set [4] relates to NCI-H1975 tumors. The settings on record: for in vivo effect on tumor growth: s.c. NCI-H1975 tumors, athymic mice, p.o. (FIG. 3). The procedure:
Non small cell lung carcinoma cell lines with amplified EGFR, but refractory to EGFR inhibition therapy, are valuable models to test the sensitivity of PI3K inhibitors like the compounds of formula I in such genetic background. […] The in vivo antitumor activity of PI3K inhibitors like the compounds of formula I is tested against this EGFR driven and inhibitor resistant tumor model (FIG. 3).

The subject of data set [5] is BT474 tumors. Briefly: antitumor activity against s.c. BT474 xenografts. The data set is classed as in vivo, mice. Particulars: BT474 subcutaneous xenografts, 45 mg/kg, po, once per day (FIG. 6).
Description: as §1

What is called GI50 is the concentration giving 50% growth inhibition.

With `Cn1c(=O)n(-c2ccc(C(C)(C)C#N)cc2)c2c3cc(-c4cnc5ccccc5c4)ccc3ncc21` [Compound A, 2-methyl-2-[4-(3-methyl-2-oxo-8-quinolin-3-yl-2,3-dihydro-imidazo[4,5-c]quinolin-1-yl)-phenyl]-propionitrile], the GI50 in data set [1] was found to be 11.4 nM; in data set [2] (Homo sapiens, panel of breast tumor cell lines containing or not ErbB2 amplification, read-out: median GI50), 11.1 nM; in data set [3] it was 31 nM. In data set [2] (cell lines that overexpressed ErbB2 (FIG. 5)), the cell death result was “induces cell death”. Further, the “tolerability (body weight, control vs treatment groups)” value in data set [4] (mouse, in vivo) is recorded as “well tolerated”. Moreover, the “in vivo effect on tumor growth” value in data set [4] is given as “causes in vivo tumor growth inhibition”. The “in vivo antitumor effect” value in data set [5] is recorded as “tumor regression”.

On to `CCN1CCN(Cc2ccc(-c3cc4c(N[C@H](C)c5ccccc5)ncnc4[nH]3)cc2)CC1` [NVP-AEE788, reference compound], for which the “in vivo effect on tumor growth” value in data set [4] was “no significant inhibition on tumor growth”.

On to `C#Cc1cccc(Nc2ncnc3cc(OCCOC)c(OCCOC)cc23)c1` [erlotinib, reference compound], for which the “in vivo effect on tumor growth” value in data set [4] was “no significant inhibition on tumor growth”.

The values above are taken from patent publication US20100196365A1, “USE OF IMIDAZOQUINOLINES FOR THE TREATMENT OF EGFR DEPENDENT DISEASES OR DISEASES THAT HAVE ACQUIRED RESISTANCE TO AGENTS THAT TARGET EGFR FAMILY MEMBERS” (priority 2007, published 2010).
